Laboratory results as given in PMC7822874, “Chemoprotective antimalarials identified through quantitative high-throughput screening of Plasmodium blood and liver stage parasites” (Scientific Reports, 2021).

Legend:
in vitro = conditions: human
[1] = test system: Plasmodium falciparum Dd2 asexual blood stage parasites; test: microbe, parasite or virus in culture; design: species or system Plasmodium falciparum Dd2 in human erythrocytes; single determination (one 11-point concentration-response curve); conditions: Plasmodium falciparum, DD2, Erythrocyte, 72 h; read-out: AC50
[2] = HepG2-A16-CD81EGFP cells, uninfected

Row | SMILES | viability at 48 h, 1 µM (in vitro; [2]) [%] | viability at 48 h, 3 µM (in vitro; [2]) [%] | AC50 [1] [nM] | other results
1 | Cc1cc(Nc2cccc(F)c2)nc(NCc2ccccc2)n1 [MLS000589387-01] | 98 | 87 | 8410 | 
2 | O=C1C=C(O)C=CC1=CNNc1ccnc2cc(Cl)ccc12 [MLS000759655-01] | 101 |  | 596 | viability at 48 h (in vitro; [2]): 101%
3 | COc1ccc(CCNC(=O)c2cc(C(=O)c3cc(Cl)ccc3O)cn(CCc3ccc(OC)cc3)c2=O)cc1 [MLS000402334-01] |  |  | 3760 | viability at 66 h (in vitro; [2]): 105%
4 | COc1ccc2ccc(O)c(CN3CC=C(c4ccccc4)CC3)c2c1 [MLS000760157-01] |  |  | 8410 | viability at 48 h, 1 µM (in vitro): 107%; viability at 48 h, 3 µM (in vitro): 101%
5 | COc1cccc(Cn2c(Oc3ccccc3)nc3c2c(=O)n(C)c(=O)n3C)c1 [MLS000038011-01] | 107 | 98 | 4730 | 
6 | CN(CCNC(=O)c1cc2c(-c3ccccc3F)nn(C)c2s1)C1CCCCC1 [MLS001199243-01] | 84 | 84 | 5960 | 
7 | CCN(CC)CCCC(C)Nc1cc(C=Cc2ccccc2Cl)nc2cc(Cl)ccc12 (stereo not drawn) [NCGC00160524-01] | 103 | 99 | 841 | 
8 | Cc1ccccc1OCC(O)CN(Cc1ccccc1O)C1CCCCC1 (stereo not drawn) [MLS001002964-01] | 85 | 90 | 119 | 
9 | CCCCCSc1cc(O)c(C(CNC)C(C)C)cc1OC (stereo not drawn) [MLS000704380-01] |  |  | 168 | viability at 48 h, 1 µM (in vitro): 106%; viability at 48 h, 3 µM (in vitro): 101%
10 | CN1C2CCC1/C(=C\c1ccccc1)C(=O)/C2=C\c1ccccc1 [MLS000551165-01] |  |  | 2110 | viability at 66 h (in vitro): 95.8%
11 | Nc1cc2ccncc2c2ccccc12 [MLS000766157-01] | 98 | 92 | 266 | 
12 | Cc1ccccc1C(=O)NC(CC(C)C)C(=O)OCC(=O)c1c(N)n(C)c(=O)n(C)c1=O (stereo not drawn) [MLS001033160-01] |  |  | 2660 | viability at 66 h (in vitro; [2]): 106%
13 | Cc1cc(Nc2ccc3ccccc3c2)n2ncnc2n1 [MLS000077665-01] | 88 | 86 | 596 | 
14 | C=CCOC(=O)C(C#N)c1nc2ccccc2nc1N1CCC(C(=O)OCC)CC1 (stereo not drawn) [MLS000036470-01] | 108 | 100 | 2370 | 
15 | COc1ccc(C2c3[nH]c4ccccc4c3C[C@H]3C(=O)N(C4CCN(Cc5ccccc5)CC4)CC(=O)N23)c(OC)c1 (stereo partly drawn) [MLS001213218-01] | 106 | 102 | 2370 | 
16 | COc1cc2c(cc1O)CC[n+]1cc3c(OC)c(OC)ccc3cc1-2 [MLS000563433-01] |  |  | 7500 | viability at 66 h (in vitro; [2]): 97.8%
17 | CC(OC(=O)CCc1cc(C(C)(C)C)c(O)c(C(C)(C)C)c1)C(=O)NC1CC1 (stereo not drawn) [MLS001159754-01] | 104 | 101 | 4730 | 
18 | Cc1cc(C)cc(/N=C/c2[nH]c3ccc(Br)c(Cl)c3c2O)c1 [MLS000586008-01] | 104 | 99 | 11900 | 
19 | Cc1cccc(NC(=O)c2cc(S(=O)(=O)N(C)c3ccc(F)cc3)ccc2Cl)n1 [MLS001160863-01] | 97 | 92 |  | 
20 | CCOc1cc(CNC(C)C(O)c2ccccc2)cc(Cl)c1OCC (stereo not drawn) [MLS000701716-01] |  |  |  | viability at 48 h, 1 µM (in vitro): 90%; viability at 48 h, 3 µM (in vitro): 88%
21 | CCOc1ccc2nc(C)cc(Nc3cccc([N+](=O)[O-])c3)c2c1 [MLS000663974-01] |  |  |  | viability at 66 h (in vitro; [2]): 102%
22 | COC(=O)c1cc2sc(Cl)cc2n1CC(=O)Nc1ccc(OC)c(OC)c1OC [MLS000093488-01] | 101 |  |  | viability at 48 h (in vitro; [2]): 101%
23 | COc1ccc(C(=O)C[n+]2ccc(N(C)C)cc2)cc1 [MLS001044390-01] |  |  |  | viability at 66 h (in vitro; [2]): 100%
24 | Cc1ccc2nc3c(c(Nc4ccc(O)cc4)c2c1)CCC3 [MLS001196969-01] | 99 | 99 |  | 
25 | CCOC(=O)C1=C(C)NC2=C(C(=O)CCC2)C1c1cn(Cc2ccc(Cl)cc2Cl)nc1-c1ccccc1 (stereo not drawn) [MLS000324811-01] | 106 | 96 |  | 
26 | Cc1n[nH]c(=S)n(/N=C/c2cccs2)c1=O [MLS000780118-01] |  |  |  | viability at 66 h (in vitro; [2]): 98.7%
27 | c1cc(Nc2ncnc3sc4c(c23)CCC4)ccn1 [MLS000681348-01] | 103 |  |  | viability at 48 h (in vitro; [2]): 103%
28 | Clc1cccc(CN2CCc3c([nH]c4ccccc34)C2)c1Cl [MLS001164092-01] | 104 |  |  | viability at 48 h (in vitro; [2]): 104%

Row | SMILES | viability at 48 h, 1 µM (in vitro; [2]) [%] | viability at 48 h, 3 µM (in vitro; [2]) [%] | AC50 [1] [nM] | other results
29 | OC(CNCCNc1ncccc1C(F)(F)F)Cn1ccc2ccccc21 (stereo not drawn) [MLS000833573-01] | 106 | 96 |  | 
30 | COc1cccc(N2C(N)=NC(N)=NC2(C)C)c1 [MLS000047853-01] | 103 |  |  | viability at 48 h (in vitro; [2]): 103%
31 | COc1ccccc1-c1nnc2sc(COc3ccc(F)cc3)nn12 [MLS000042616-01] | 102 |  |  | viability at 48 h (in vitro; [2]): 102%
32 | CCOc1cc(C2NCc3ccccc3-n3cccc32)ccc1O (stereo not drawn) [MLS000047991-01] |  |  |  | viability at 48 h, 1 µM (in vitro): 97%; viability at 48 h, 3 µM (in vitro): 95%
33 | CCOc1cc(CN2CCCC(N3CCN(c4ccc(F)cc4)CC3)C2)ccc1OC (stereo not drawn) [MLS001162894-01] | 114 | 103 |  | 
34 | NS(=O)(=O)c1cccc(NC(=O)CSc2nn(-c3ccccc3)c(=S)s2)c1 [MLS000339501-01] | 105 | 100 |  | 
35 | COC(CSc1nc(N)c2c3c(sc2n1)CN(C)CC3)OC [MLS001215130-01] |  |  |  | viability at 66 h (in vitro; [2]): 97.5%
36 | Cc1ccc(-n2nc3c(Cl)nnc(C)c3c2C)cc1 [MLS000698458-01] | 105 | 104 |  | 
37 | CCCN(CCC)C(=O)Cn1ccc(=N)c2ccccc21 [MLS000047676-01] | 95 | 87 |  | 
38 | CCc1ccc2c(c1)C1(NN=C(c3ccc(C)cc3)S1)C(=O)N2 (stereo not drawn) [MLS000528737-01] | 115 | 80 |  | 
39 | CCc1cc(C(=O)c2ccccc2)c(N)s1 [MLS001211275-01] |  |  |  | viability at 66 h (in vitro; [2]): 107%
40 | CCSc1nnc(SCC(=O)c2c(N)n(C)c(=O)n(C)c2=O)s1 [MLS002169255-01] | 93 | 88 |  | 
41 | COc1ccc(CCn2c(=N)c(C(=O)NC3CCCCC3)cc3c(=O)n4ccccc4nc32)cc1 [MLS001146200-01] | 102 | 98 |  | 
42 | CCCCN(C)[S+](=O)([O-])c1ccc(C(=O)Nc2ccc(-c3nc4ccc(C)cc4s3)cc2)cc1 [NCGC00134689-01] |  |  |  | viability at 66 h (in vitro; [2]): 103%
43 | O=S(=O)(c1ccc(F)cc1)N1CCN(/C(S)=N/Cc2ccco2)CC1 [MLS000409296-01] |  |  |  | viability at 66 h (in vitro; [2]): 103%
44 | C=CCNc1nc(N(c2ccccc2)c2ccccc2)nc(-n2ccnc2)n1 [MLS000045718-01] |  |  |  | viability at 66 h (in vitro; [2]): 107%
45 | Cc1ccc(-c2nc(CN3CCCCC3)cc(CN3CCCCC3)c2O)cc1 [MLS000713293-01] | 101 |  |  | viability at 48 h (in vitro; [2]): 101%
46 | Cc1ccccc1Nc1nnc(SCc2cc(=O)n3ccsc3n2)s1 [MLS000565690-01] | 107 | 101 |  | 
47 | Cc1nn(-c2ccc([N+](=O)[O-])cc2)c2c1C(c1cccc(Br)c1)N1C(=N2)C(=O)Nc2ccccc21 (stereo not drawn) [MLS000331784-01] | 105 | 102 |  | 
48 | Cc1ccc2[nH]c(C(=O)Nc3ccc(F)cc3)cc2c1 [MLS001183414-01] |  |  |  | viability at 66 h (in vitro; [2]): 99.7%
49 | CCCC(=O)Nc1sc2c(c1C(=O)Nc1ccccn1)CCCC2 [MLS000765104-01] |  |  |  | viability at 66 h (in vitro; [2]): 101%
50 | CCOC(=O)Cn1c2c(c(=N)c3c1CCC3)CCC2 [MLS000080129-01] |  |  |  | viability at 66 h (in vitro; [2]): 99.5%
51 | COc1ccc(C2CC(c3cccs3)=NN2C(=O)c2ccco2)cc1OC (stereo not drawn) [MLS000769739-01] |  |  |  | viability at 66 h (in vitro; [2]): 101%
52 | C=C(C)CSc1nc2sc3c(c2c(=O)n1-c1ccc(OC)cc1)CCN(C)C3 [MLS001173660-01] | 106 | 105 |  | 
53 | Cc1ccc(C(=O)c2oc3ccccc3c2NC(=O)c2cc(-c3cc(C)ccc3O)[nH]n2)cc1 [MLS000331963-01] | 103 | 102 |  | 
54 | CCOC(=O)N1CCc2c(sc3nc4n(c(=O)c23)N=C(c2ccc(OC)cc2)CS4)C1 [MLS000859689-01] | 99 | 96 |  | 
55 | COc1ccc(-c2c[n+](CC(=O)c3cccs3)c3n2CCC3)cc1 [MLS000333575-01] |  |  |  | viability (in vitro): 101%
